According to ChEMBL document CHEMBL4000199, “Synthesis and biological evaluation of novel hydroxybenzaldehyde-based kojic acid analogues as inhibitors of mushroom tyrosinase” (Bioorg Med Chem Lett, 2017):
The source made the active and inactive calls. The calls are words filed in the database; no cut-off is given here.

Experiments:
[1] = biological target: T1, Tyrosinase (Agaricus bisporus, UniProt O42713); experiment: (§1) Inhibition of mushroom tyrosinase diphenolase activity assessed as reduction in dopachrome formation using L-DOPA as substrate preincubated for 20 mins followed by substrate addition measured for 1 min
T1 sequence (O42713 whole entry): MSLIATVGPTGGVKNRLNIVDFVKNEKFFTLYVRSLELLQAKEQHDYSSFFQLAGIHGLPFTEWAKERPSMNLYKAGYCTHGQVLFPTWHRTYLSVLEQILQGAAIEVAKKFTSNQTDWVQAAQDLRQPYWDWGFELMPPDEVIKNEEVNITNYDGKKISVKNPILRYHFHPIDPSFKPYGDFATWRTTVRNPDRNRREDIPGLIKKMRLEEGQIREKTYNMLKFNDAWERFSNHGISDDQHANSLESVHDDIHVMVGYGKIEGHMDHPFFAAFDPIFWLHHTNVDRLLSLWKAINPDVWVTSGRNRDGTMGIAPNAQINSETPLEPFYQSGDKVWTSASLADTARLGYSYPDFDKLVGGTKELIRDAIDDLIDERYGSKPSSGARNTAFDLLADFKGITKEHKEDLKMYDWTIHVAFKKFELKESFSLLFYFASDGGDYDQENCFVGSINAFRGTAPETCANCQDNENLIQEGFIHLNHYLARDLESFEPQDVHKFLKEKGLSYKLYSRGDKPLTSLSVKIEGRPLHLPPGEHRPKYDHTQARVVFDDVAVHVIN

[2] = biological target: Mushroom tyrosinase (Agaricus bisporus, UniProt O42713+Q00024+C7FF04+C7FF05); experiment: Inhibition of mushroom tyrosinase using L-tyrosine as substrate measured after 20 mins
[3] = biological target: T2, Tyrosinase (Agaricus bisporus) (UniProt O42713); experiment: as §1
T2 sequence (whole entry): T1 sequence (O42713 whole entry)

[4] = biological target: T2, Tyrosinase (Agaricus bisporus); experiment: Competitive inhibition of mushroom tyrosinase up to 1.2 uM using varying levels of L-DOPA as substrate preincubated for 20 mins followed by substrate addition measured for 1 min by Lineweaver-Burk plot analysis

Compound | IC50 [1] [µM] | further results
CCc1nnc(SCc2cc(=O)c(O)co2)n1NCc1ccccc1O | 7.6 | –
O=c1cc(CSc2nnc(-c3ccccc3Cl)n2/N=C/c2ccc(O)c(O)c2)occ1O | 5.2 | –
O=c1cc(CSc2nnc(-c3ccc(Cl)cc3)n2NCc2ccccc2O)occ1O | 1.71 | –
O=c1cc(CSc2nnc(-c3cccc(Cl)c3)n2NCc2ccccc2O)occ1O | 2.5 | –
O=c1cc(CSc2nncn2/N=C/c2ccc(O)cc2O)occ1O | 9.6 | –
O=c1cc(CSc2nncn2/N=C/c2ccc(O)cc2)occ1O | 8.54 | –
O=c1cc(CSc2nnc(-c3ccccc3)n2NCc2ccccc2O)occ1O | 1.5 | –
O=c1cc(CSc2ccc(O)cc2)occ1O | – | IC50 [2]: 0.54 µM
O=c1cc(CSc2nncn2NCc2ccccc2O)occ1O | 5.85 | –
Cc1nnc(SCc2cc(=O)c(O)co2)n1NCc1ccc(O)cc1O | 5.8 | –
O=c1cc(CSc2nnc(-c3ccccc3)n2NCc2ccc(O)cc2O)occ1O | 1.35 | inhibition [3]: Dose-dependent effect; inhibition [4]: Active
Cc1nnc(SCc2cc(=O)c(O)co2)n1NCc1ccccc1O | 10.2 | –
Cc1ccc(-c2nnc(SCc3cc(=O)c(O)co3)n2NCc2ccccc2O)cc1 | 3.8 | –
Cc1nnc(SCc2cc(=O)c(O)co2)n1NCc1cccc(O)c1 | 12.5 | –
COc1cc(/C=N/n2cnnc2SCc2cc(=O)c(O)co2)ccc1O | 17.5 | –
